PMC12116762, “Topobexin targets the Topoisomerase II ATPase domain for beta isoform-selective inhibition and anthracycline cardioprotection” (Nature Communications, 2025)
“And” between values parts separate entries of the source, which are not always exact repeats. Equal entries are not always repeated.

Experiments:
[1] = Aqueous solubility; type: physicochemical; conditions: limited evaluation to ≤ 10 μM
[2] = test system: γH2AX; experiment: γH2AX levels in NVCM (Western blotting); type: cell-based, rat; set-up: γH2AX level, mean: scale not given here; conditions: for γH2AX level: independent replicates
Method: TOP2B and γH2AX levels in NVCM were determined as follows. After incubation, 4 × 10^5 rat neonatal cardiomyocytes were lysed with 75 µL of 2% SDS in 0.1 M Tris (pH 7.4) and boiled at 95 °C for 5 min. The protein content of each sample was determined by the BCA method and 10 μg of total protein were loaded onto a polyacrylamide gel (7.5% for TOP2B, 12% for γH2AX, Bio-Rad TGX stain-free gels). After approximately 75 min of electrophoresis (150 V, Bio-Rad Mini-PROTEAN Tetra Cell), the gels were transblotted onto nitrocellulose membranes using a semi-dry method in Transblot Turbo (Bio-Rad, USA). The next day, the membranes were blocked for 1 h in 5% skimmed milk powder in 0.05% TBS-T at room temperature (RT). For TOP2 analysis, membranes were incubated with rabbit anti-TOP2A/B (1:2,000, ab109524, Abcam, UK) in 1% BSA in PBS for 1 h at RT, washed 6 times for 5 min in 0.05% TBS-T and then incubated with HRP-labeled F(ab’)2 goat anti-rabbit IgG (1:10,000, ab6112, Abcam, UK) in 0.05% TBS-T for 1 h RT and washed again (6 × 5 min in 0.05% TBS-T). For γH2AX analysis, membranes were incubated with mouse anti-γH2AX (1:5,000; ab26350, Abcam, UK) in 5% BSA in PBS for 1 h at RT, washed with 0.05% PBS-T for 6 × 5 min, incubated with HRP-conjugated anti-mouse IgG (1:40,000; A9044 Sigma Aldrich, USA) in 5% BSA in PBS for 1 h RT and finally washed with 0.05% PBS-T for 6 times 5 min. Target proteins were visualized using a chemiluminescent detection substrate (Clarity Western ECL Substrate, Bio-Rad, USA) and a Gel Doc EZ with Image Lab software (Bio-Rad, USA). Full, uncropped images of all blots present in the manuscript figures are included in the source data file.
Densitometric quantification was performed using Image Lab software (Bio-Rad). Stain-free technology was used to visualize the total protein on the gel and normalize the total protein amount in each line. Each presented data point was obtained from distinct sample.

[3] = test system: caspase 8; experiment: Caspase 8 activity in NVCM (Caspase-Glo); type: cell-based, rat; conditions: for Csp8 activity: independent replicates
Method: Caspase activity was assessed on NVCM cells using luciferase-based kits for caspase 3/7, 8 and 9 (Caspase-Glo® 3/7, 8 and 9 assay systems; Promega) according to the manufacturer’s instructions on 384-well plates (Greiner Bio-One). Luminescence signal was measured using Tecan M200 multifunctional plate-reader. All measured groups were corrected for total protein concentration (BCA assay) and were expressed as fold change of the signal over corresponding untreated control group. Each presented data point was obtained from distinct sample. Statistical significance was determined using ratio paired t-test, two-tailed.

[4] = target: T1, YFP-TOP2B (Homo sapiens, UniProt Q02880); experiment: FRAP analysis, YFP-TOP2B in HEK293F cells; type: cell-based; conditions: 0.25 and 1 μM
T1 construct: Using recombinant full-length human TOP2A and TOP2B enzymes; expressed in transfected cells; host or cells: HEK293F
T1 sequence (Q02880 1-1621 isoform Q02880-2): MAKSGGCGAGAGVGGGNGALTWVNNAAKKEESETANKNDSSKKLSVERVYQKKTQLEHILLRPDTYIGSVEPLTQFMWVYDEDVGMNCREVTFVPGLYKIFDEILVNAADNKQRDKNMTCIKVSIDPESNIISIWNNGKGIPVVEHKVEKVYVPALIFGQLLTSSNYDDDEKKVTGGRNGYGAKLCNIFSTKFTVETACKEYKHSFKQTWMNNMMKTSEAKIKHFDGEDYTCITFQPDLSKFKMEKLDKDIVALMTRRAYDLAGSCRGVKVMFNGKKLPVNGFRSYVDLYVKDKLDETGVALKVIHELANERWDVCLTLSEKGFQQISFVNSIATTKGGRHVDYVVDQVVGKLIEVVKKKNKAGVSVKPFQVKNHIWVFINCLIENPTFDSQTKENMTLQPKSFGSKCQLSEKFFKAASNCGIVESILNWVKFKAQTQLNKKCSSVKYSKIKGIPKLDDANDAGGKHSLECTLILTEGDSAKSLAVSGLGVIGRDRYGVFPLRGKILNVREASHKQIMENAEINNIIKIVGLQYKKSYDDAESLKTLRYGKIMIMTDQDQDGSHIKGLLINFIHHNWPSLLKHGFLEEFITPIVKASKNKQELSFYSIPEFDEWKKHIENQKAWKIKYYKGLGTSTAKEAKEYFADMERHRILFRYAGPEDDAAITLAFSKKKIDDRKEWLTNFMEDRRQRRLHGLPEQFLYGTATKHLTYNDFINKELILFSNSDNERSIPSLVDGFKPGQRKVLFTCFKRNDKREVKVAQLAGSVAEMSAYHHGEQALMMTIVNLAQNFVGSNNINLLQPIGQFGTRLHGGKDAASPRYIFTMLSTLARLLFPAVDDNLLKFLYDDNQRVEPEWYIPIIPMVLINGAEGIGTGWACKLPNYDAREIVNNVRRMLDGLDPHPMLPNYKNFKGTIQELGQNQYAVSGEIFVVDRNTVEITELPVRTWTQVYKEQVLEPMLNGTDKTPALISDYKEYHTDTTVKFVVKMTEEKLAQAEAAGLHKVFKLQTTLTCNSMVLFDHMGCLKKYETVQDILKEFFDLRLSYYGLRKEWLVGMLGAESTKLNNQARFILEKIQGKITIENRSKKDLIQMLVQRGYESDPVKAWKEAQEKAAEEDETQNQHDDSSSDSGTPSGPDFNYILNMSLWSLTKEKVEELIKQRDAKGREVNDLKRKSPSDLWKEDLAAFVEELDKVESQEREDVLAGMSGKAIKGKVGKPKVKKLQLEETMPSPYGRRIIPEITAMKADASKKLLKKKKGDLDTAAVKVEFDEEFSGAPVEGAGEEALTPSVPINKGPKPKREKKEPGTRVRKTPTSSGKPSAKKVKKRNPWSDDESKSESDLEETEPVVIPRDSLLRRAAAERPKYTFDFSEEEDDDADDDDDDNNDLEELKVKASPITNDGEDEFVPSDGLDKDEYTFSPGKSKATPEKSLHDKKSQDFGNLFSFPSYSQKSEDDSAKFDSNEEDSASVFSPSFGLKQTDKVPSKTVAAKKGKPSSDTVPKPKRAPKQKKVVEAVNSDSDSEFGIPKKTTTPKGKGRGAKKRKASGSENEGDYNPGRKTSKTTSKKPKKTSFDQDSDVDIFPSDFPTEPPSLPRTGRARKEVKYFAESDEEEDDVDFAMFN
Method: (§1) HEK293F cells were transfected with DNA plasmids encoding yellow-fluorescent protein (YFP)-TOP2A or YFP-TOP2B (the same DNA constructs for mammalian protein expression and purification) using Lipofectamine 2000 (Thermo Fisher Scientific). Cells were cultured for 24 h post transfection and YFP signals were confirmed prior to FRAP experiments. Transfected cells were plated on glass-bottomed culture dishes (Matsunami) and rested overnight. The next day, each dish was pre-incubated with the indicated inhibitor treatment or DMSO control for 15 min prior to FRAP experiment. Each set of experiments was repeated on at least two different days using newly transfected cells each time. Live-cell imaging was done using a LSM 980 microscope (Carl Zeiss Microscopy, LLC). YFP signal was excited at 508 nm at 2% laser power and detected through a 516–604 nm range. A small area within the nucleus (purple box) is manually selected for fluorescence bleaching at 100% laser power for 50 iterations. Inhibition of TOP2 by obex inhibitors was detected by impairment in fluorescence recovery at 15 s post bleaching, as a lack of inhibition allows for TOP2 diffusion throughout the nucleus.

[5] = target: T2, YFP-TOP2A (Homo sapiens, UniProt P11388); experiment: FRAP analysis, YFP-TOP2A in HEK293F cells; type: cell-based; conditions: 0.25 and 1 μM
T2 construct: Using recombinant full-length human TOP2A and TOP2B enzymes; expressed in transfected cells; host or cells: HEK293F
T2 sequence (P11388 whole entry): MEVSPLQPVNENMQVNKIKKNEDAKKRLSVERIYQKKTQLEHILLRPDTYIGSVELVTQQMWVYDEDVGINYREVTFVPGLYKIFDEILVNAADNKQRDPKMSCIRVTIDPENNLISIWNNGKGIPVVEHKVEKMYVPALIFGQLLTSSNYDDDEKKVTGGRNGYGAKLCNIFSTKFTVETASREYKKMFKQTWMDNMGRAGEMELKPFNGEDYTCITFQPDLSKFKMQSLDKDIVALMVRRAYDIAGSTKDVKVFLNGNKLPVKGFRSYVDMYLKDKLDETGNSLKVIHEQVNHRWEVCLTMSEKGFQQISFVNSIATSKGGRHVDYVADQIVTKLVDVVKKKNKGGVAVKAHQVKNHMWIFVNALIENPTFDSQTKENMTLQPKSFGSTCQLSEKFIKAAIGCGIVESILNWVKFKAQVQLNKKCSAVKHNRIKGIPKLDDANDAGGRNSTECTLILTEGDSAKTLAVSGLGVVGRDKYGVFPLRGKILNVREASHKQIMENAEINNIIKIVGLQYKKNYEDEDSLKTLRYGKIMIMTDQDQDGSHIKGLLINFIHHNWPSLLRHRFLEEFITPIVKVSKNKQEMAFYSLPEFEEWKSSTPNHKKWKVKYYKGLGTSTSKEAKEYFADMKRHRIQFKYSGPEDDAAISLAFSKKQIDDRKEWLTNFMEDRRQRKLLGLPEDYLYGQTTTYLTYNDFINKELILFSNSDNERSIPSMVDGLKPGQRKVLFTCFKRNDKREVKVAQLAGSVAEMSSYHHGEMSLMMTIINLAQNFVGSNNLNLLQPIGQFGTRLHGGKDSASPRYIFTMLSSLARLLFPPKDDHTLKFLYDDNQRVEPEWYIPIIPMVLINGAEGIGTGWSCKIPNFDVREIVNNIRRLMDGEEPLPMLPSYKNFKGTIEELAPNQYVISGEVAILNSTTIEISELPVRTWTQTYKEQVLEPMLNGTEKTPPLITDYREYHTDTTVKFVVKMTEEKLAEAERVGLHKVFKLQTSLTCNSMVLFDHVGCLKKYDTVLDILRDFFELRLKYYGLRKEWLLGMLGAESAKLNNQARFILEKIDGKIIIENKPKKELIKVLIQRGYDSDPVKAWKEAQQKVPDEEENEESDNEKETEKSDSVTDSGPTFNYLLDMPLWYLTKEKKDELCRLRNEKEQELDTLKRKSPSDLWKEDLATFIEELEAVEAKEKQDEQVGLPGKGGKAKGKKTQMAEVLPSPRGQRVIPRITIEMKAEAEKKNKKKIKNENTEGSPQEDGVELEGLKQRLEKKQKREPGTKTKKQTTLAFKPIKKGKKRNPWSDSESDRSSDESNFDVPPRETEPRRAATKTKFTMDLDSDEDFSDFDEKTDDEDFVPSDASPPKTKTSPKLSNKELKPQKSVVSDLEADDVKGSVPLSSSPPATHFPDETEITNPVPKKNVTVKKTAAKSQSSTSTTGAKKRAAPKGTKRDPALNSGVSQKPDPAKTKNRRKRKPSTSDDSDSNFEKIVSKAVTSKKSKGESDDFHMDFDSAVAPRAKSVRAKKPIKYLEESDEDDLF
Method: as §1

[6] = test system: NVCM; experiment: Live-cell microscopy and mitochondrial membrane staining of NVCM; type: cell-based, rat; conditions: 10 µM + DAU 1.2 µM
Method: Micrographs were obtained using an Eclipse TS100 inverted epifluorescence microscope (Nikon Corporation, Tokyo, Japan) and NIS-Elements AR 2.20 software (Laboratory Imaging s.r.o., Prague, Czech Republic). After treatment and incubation time corresponding to cytotoxicity/protection experiments (3 h preincubation with topobexin (9) [10 µM], 3 h co-incubation with topobexin (9) [10 µM] + DAU [1.2 µM], 45 h drug-free medium) NVCM were stained with 0.5 μM JC-1 probe (Molecular Probes/Thermo Fisher Scientific, USA) for 30 min at 37 °C or combination of 0.2 μM MitoTracker Red CMXRos (Molecular Probes/Thermo Fisher Scientific, USA) for 30 min and Hoechst 33342 for 10 min at 37 °C and then washed with a buffer (1.2 mM MgSO4 · 7H2O, 116 mM NaCl, 5.3 mM KCl, 1.13 mM NaH2PO4 · H2O, 20 mM HEPES).

CCCc1cc(=O)oc2c(C(=O)N3CCCc4ccccc43)c(OC)cc(OC)c12 [BNS-22]
solubility in aqueous environment [1]: poor solubility in aqueous environment

COc1cccc2c1C(=O)c1c(O)c3c(c(O)c1C2=O)C[C@@](O)(C(C)=O)C[C@@H]3O[C@H]1C[C@H](N)[C@H](O)[C@H](C)O1 [DAU, daunorubicin, reference compound]
γH2AX level, mean ([2]; DAU 1.2 μM alone): 100 | γH2AX level ([2]; DAU 1.2 μM alone): 113.699 and 89.6209 and 76.0928 and 120.587 | Csp8 activity, mean ([3]; DAU 1.2 μM alone): 2.2056 fold change | Csp8 activity ([3]; DAU 1.2 μM alone): 1.777 fold change and 1.7129 fold change and 3.182 fold change and 1.952 fold change and 2.3428 fold change and 2.2669 fold change

CCCc1cc(=O)oc2c(C(=O)N3CCCc4ccccc43)c(OCCN3CCN(C)CC3)ccc12 [topobexin (9)]
recovery of fluorescence for TOP2B in photobleached area [4]: impaired | γH2AX level, mean ([2]; 0.1 µM + DAU 1.2 µM): 39.0271 | γH2AX level ([2]; 0.1 µM + DAU 1.2 µM): 36.8376 and 42.68 and 24.34 and 52.2506 | γH2AX level, mean ([2]; 0.1 µM alone): 2.32 | γH2AX level ([2]; 0.1 µM alone, DAU mean 100): 5.77 and 0.9222 and 2.18 and 0.4088 | γH2AX level, mean ([2]; 1 µM + DAU 1.2 µM): 7.0222 | γH2AX level ([2]; 1 µM + DAU 1.2 µM): 17.1283 and 3.616 and 2.74 and 4.605 | γH2AX level, mean ([2]; 1 µM alone): 3.099 | γH2AX level ([2]; 1 µM alone): 8.242 and 0.9663 and 2.352 and 0.8374 | γH2AX level, mean ([2]; 10 µM + DAU 1.2 µM): 3.08 | γH2AX level ([2]; 10 µM + DAU 1.2 µM): 6.036 and 4.664 and 0.5024 and 1.119 | γH2AX level, mean ([2]; 10 µM alone): 2.838 | γH2AX level ([2]; 10 µM alone): 3.615 and 3.033 and 2.846 and 1.856 | lowest concentration tested preventing DAU-induced γH2AX ([2]; NVCM): 0.1 µM | Csp8 activity, mean ([3]; Cmpd 9 10 μM + DAU 1.2 μM): 1.776 fold change | Csp8 activity ([3]; Cmpd 9 10 μM + DAU 1.2 μM): 1.323 fold change and 1.259 fold change and 2.008 fold change and 1.4395 fold change and 2.674 fold change and 1.95 fold change | Csp8 activity, mean ([3]; Cmpd 9 10 μM alone): 1.035 fold change | Csp8 activity ([3]; Cmpd 9 10 μM alone): 0.9315 fold change and 1.0306 fold change and 0.962 fold change and 0.8268 fold change and 1.054 fold change and 1.403 fold change | mobility of TOP2A (FRAP) [5]: not affected | DAU-induced changes in cardiomyocyte morphology and mitochondria [6]: reduced the distinct changes in cardiomyocyte morphology induced by DAU
